Assay results reported in US7351690B2, “Knockout identification of target-specific sites in peptides” (priority 2000, dated 2008).
Square brackets hold non-standard residues; d marks the D form. Ends that are not written are not given here. pGlu = O=C1CC[C@@H](C(=O)O)N1; Nle = CCCC[C@H](N)C(=O)O

Test system: bombesin receptor
Assay: competitive binding assay, 125I-Bombesin, rat brain membranes
Conditions: for % Inhibition: inhibition of 0.01 nM 125I-Bombesin binding, rat brain membranes, test concentration not given
Description: Rat brain membranes were utilized as the source of bombesin receptor. The competitive binding assay was performed using a procedure as described by Moody T W, Perk C B, Rivier J, Brown, M R. (Proc Natl Acad Sci USA. 75:5372-5376, […]) and adapted to a 96 well format. An aliquot of membranes taken in assay buffer (50 mM Tris and HCl, pH 7.4 containing 1 mg/mL BSA and 2 μg/mL bacitracin) was incubated with 0.01 nM of ^125I-Bombesin with or without varying concentrations of the test compound for 60 min at 4° C. The incubation was terminated by rapid filtration of the assay mixture, followed by washing the filters with ice-cold buffer. The filters were dried and counted in a gamma counter for retained radioactivity. Non-specific binding was measured by including 1 μM Bombesin in the assay tube. The assay was performed in triplicate and results calculated to determine percentage inhibition of the ^125I-Bombesin binding to its receptors by a test compound. The parent polypeptide is shown in Table 6, with metallopeptides having Cys inserted as shown.

Row | Substance | % Inhibition | binding to bombesin receptor, in words
1 | Pyr-Gln-Arg-Cys-Leu-Gly-Asn-Gln-Trp-Ala-Val-Gly-His-Leu-Nle-NH2 ([pGlu]QRCLGNQWAVGHL[Nle]-NH2; numbers in words are those of the source; also: oxorhenium(V) N3S1 chelate (Re(V)=O)) [6-12] | 97% | –
2 | Pyr-Gln-Arg-Leu-Gly-Asn-Cys-Gln-Trp-Ala-Val-Gly-His-Leu-Nle-NH2 ([pGlu]QRLGNCQWAVGHL[Nle]-NH2; numbers in words are those of the source; also: oxorhenium(V) N3S1 chelate (Re(V)=O)) [6-9] | 91% | –
3 | Pyr-Gln-Arg-Leu-Gly-Asn-Cys-Trp-Ala-Val-Gly-His-Leu-Nle-NH2 (QRLGNCWAVGHL; N-term pyroglutamate; Nle-NH2; rhenium complex; printed: Gln-Arg-Leu-Gly-Asn-Cys-Trp-Ala-Val-Gly-His-Leu-) [7-8] | 84% | –
4 | Pyr-Gln-Arg-Leu-Gly-Asn-Gln-Cys-Ala-Val-Gly-His-Leu-Nle-NH2 (QRLGNQCAVGHL; N-term pyroglutamate; Nle-NH2; rhenium complex; printed: Gln-Arg-Leu-Gly-Asn-Gln-Cys-Ala-Val-Gly-His-Leu-) [7-7] | −2% | Complete inactivity
5 | Pyr-Gln-Arg-Leu-Gly-Asn-Gln-Cys-Trp-Ala-Val-Gly-His-Leu-Nle-NH2 ([pGlu]QRLGNQCWAVGHL[Nle]-NH2; numbers in words are those of the source; also: oxorhenium(V) N3S1 chelate (Re(V)=O)) [6-8] | 75% | –
6 | Pyr-Gln-Arg-Leu-Gly-Asn-Gln-Trp-Ala-Cys-Gly-His-Leu-Nle-NH2 (QRLGNQWACGHL; N-terminal pyroglutamate; C-terminal Nle-amide; printed: Gln-Arg-Leu-Gly-Asn-Gln-Trp-Ala-Cys-Gly-His-Leu-) [7-5] | 61% | –
7 | Pyr-Gln-Arg-Leu-Gly-Asn-Gln-Trp-Ala-Cys-Val-Gly-His-Leu-Nle-NH2 ([pGlu]QRLGNQWACVGHL[Nle]-NH2; numbers in words are those of the source; also: oxorhenium(V) N3S1 chelate (Re=O) with Cys) [6-6] | 83% | –
8 | Pyr-Gln-Arg-Leu-Gly-Asn-Gln-Trp-Ala-Val-Cys-Gly-His-Leu-Nle-NH2 ([pGlu]QRLGNQWAVCGHL[Nle]-NH2; numbers in words are those of the source; also: oxorhenium(V) N3S1 chelate (Re=O) with Cys) [6-5] | 67% | –
9 | Pyr-Gln-Arg-Leu-Gly-Asn-Gln-Trp-Ala-Val-Cys-His-Leu-Nle-NH2 (QRLGNQWAVCHL; N-terminal pyroglutamate; C-terminal Nle-amide; printed: Gln-Arg-Leu-Gly-Asn-Gln-Trp-Ala-Val-Cys-His-Leu-) [7-4] | 81% | –
10 | Pyr-Gln-Arg-Leu-Gly-Asn-Gln-Trp-Ala-Val-Gly-Cys-His-Leu-Nle-NH2 ([pGlu]QRLGNQWAVGCHL[Nle]-NH2; numbers in words are those of the source; also: oxorhenium(V) N3S1 chelate (Re=O) with Cys) [6-4] | 70% | –
11 | Pyr-Gln-Arg-Leu-Gly-Asn-Gln-Trp-Ala-Val-Gly-Cys-Leu-Nle-NH2 (QRLGNQWAVGCL; N-terminal pyroglutamate; C-terminal Nle-amide; printed: Gln-Arg-Leu-Gly-Asn-Gln-Trp-Ala-Val-Gly-Cys-Leu-) [7-3] | 82% | –
12 | Pyr-Gln-Arg-Leu-Gly-Asn-Gln-Trp-Ala-Val-Gly-His-Cys-Leu-Nle-NH2 ([pGlu]QRLGNQWAVGHCL[Nle]-NH2; numbers in words are those of the source; also: rhenium complex (oxorhenium(V) N3S1 chelate via Cys)) [6-3] | 71% | –
13 | Pyr-Gln-Arg-Leu-Gly-Asn-Gln-Trp-Ala-Val-Gly-His-Cys-Nle-NH2 (QRLGNQWAVGHC; N-term pyroglutamate; Nle-NH2; rhenium complex; printed: Gln-Arg-Leu-Gly-Asn-Gln-Trp-Ala-Val-Gly-His-Cys-) [7-2] | 66% | –
14 | Pyr-Gln-Arg-Leu-Gly-Asn-Gln-Trp-Ala-Val-Gly-His-Leu-Cys-NH2 (QRLGNQWAVGHLC; N-term pyroglutamate; C-terminal amide; rhenium complex; printed: Gln-Arg-Leu-Gly-Asn-Gln-Trp-Ala-Val-Gly-His-Leu-Cys-) [7-1] | 73% | –
15 | Pyr-Gln-Arg-Leu-Gly-Asn-Gln-Trp-Ala-Val-Gly-His-Leu-Cys-Nle-NH2 (QRLGNQWAVGHLC; N-term pyroglutamate; Nle-NH2; rhenium complex; printed: Gln-Arg-Leu-Gly-Asn-Gln-Trp-Ala-Val-Gly-His-Leu-Cys-) [6-2] | 91% | –
16 | Pyr-Gln-Arg-Leu-Gly-Asn-Gln-Trp-Ala-Val-Gly-His-Leu-Nle-Cys-NH2 ([pGlu]QRLGNQWAVGHL[Nle]C-NH2; numbers in words are those of the source; also: rhenium complex (oxorhenium(V) N3S1 tetradentate chelate via Re=O core)) [6-1] | 82% | –
17 | Pyr-Gln-Arg-Leu-Gly-Asn-Gln-Trp-Cys-Ala-Val-Gly-His-Leu-Nle-NH2 ([pGlu]QRLGNQWCAVGHL[Nle]-NH2; numbers in words are those of the source; also: rhenium complex (oxorhenium(V) N3S1 tetradentate chelate via Re=O core)) [6-7] | 62% | –
18 | Pyr-Gln-Arg-Leu-Gly-Asn-Gln-Trp-Cys-Val-Gly-His-Leu-Nle-NH2 (QRLGNQWCVGHL; N-terminal pyroglutamate; C-terminal Nle-amide; printed: Gln-Arg-Leu-Gly-Asn-Gln-Trp-Cys-Val-Gly-His-Leu-) [7-6] | 91% | –
19 | Pyr-Gln-Arg-Leu-Gly-Cys-Asn-Gln-Trp-Ala-Val-Gly-His-Leu-Nle-NH2 ([pGlu]QRLGCNQWAVGHL[Nle]-NH2; numbers in words are those of the source; also: rhenium complex (oxorhenium(V) N3S1 tetradentate chelate via Re=O core)) [6-10] | 93% | –
20 | Pyr-Gln-Arg-Leu-Gly-Cys-Gln-Trp-Ala-Val-Gly-His-Leu-Nle-NH2 (QRLGCQWAVGHL; N-term pyroglutamate; Nle-NH2; rhenium complex; printed: Gln-Arg-Leu-Gly-Cys-Gln-Trp-Ala-Val-Gly-His-Leu-) [7-9] | 93% | –
21 | Trp-Ala-Val-Cys-His-Leu-Leu-NH2 (WAVCHLL-NH2; not fully specified (bridges); printed as Trp-Ala-Val-Cys-His-Leu-Leu-NH2; also: oxorhenium(V) N3S1 chelate (Re=O) with Cys) [11-5] | 18% | –
22 | Trp-Ala-Val-Cys-His-Leu-NH2 (WAVCHL-NH2; not fully specified (bridges); printed as Trp-Ala-Val-Cys-His-Leu-NH2; also: oxorhenium(V) N3S1 chelate (Re=O) with Cys) [11-8] | 13% | –
23 | Trp-Ala-Val-Cys-His-NH2 (WAVCH-NH2; not fully specified (bridges); printed as Trp-Ala-Val-Cys-His-NH2; also: oxorhenium(V) N3S1 chelate (Re=O) with Cys) [11-11] | −1% | –
